Source: patent publication US12076329B2, “Compositions and methods for enhancing visual function” (The Regents of the University of California, priority 2020, dated 2024)

Assays:
[1] = system: rd1 mice expressing SNAP-mGluR2 in RGCs; assay: 2-chamber light/dark light aversion test, SNAP-mGluR2 in RGCs; assay type: in vivo, mouse
Experimental: (§1) Mouse experiments were conducted under the express approval of the University of California Animal Care and Use Committee, wt mice (C57BL/6J) and rd1 mice (C3H) were purchased from the Jackson Laboratory and housed on a 12-h light/dark cycle with food and water ad libitum. cDNA encoding SNAP-mGluR2 was inserted in an established viral cassette under control of either the human synapsin promoter (hsyn-1) for expression in RGCs or a 4-copy concatemer of the mouse grm6 minimal promoter (4×grm6) for expression in ON-BCs and packaged in the AAV 2/2-4YF capsid. The vector, containing 10^10-10^12 viral genomes was delivered in a 2 µl volume to the vitreous of the rd1 mouse eye via microinjection. rAAV injections were at p30-p60 and in vivo and in vitro experiments at p90-p160. AAVs were produced as previously described.
Photoswitch compounds were synthesized using the protocol described in Broichhagen, J., et al. (2015) ACS Cent Sci 1, 383-393. Stock solution of […] BGAG12,460 (L-diastereomer) in 100% pharmaceutical grade DMSO (Cryoserv; Bioniche Pharma) was diluted 1:100 in sterile PBS for a final working solution of 1 mM in 1% DMSO. Working solutions were either prepared before administration, prepared in stock stored in the freezer and used as required, or salvaged from the recording bath and stored (either RT or freezer) for reuse. Application of BGAG12,460 or BGAG12 on retinal explants were performed in a volume of 200 μL at a concentration of 50 μM to 50 nM BGAG12,460 (in PBS with >1% DMSO). For in vivo behavioral experiments, a 2-μL volume of 1 mM or 3.5 μL (final vitreal concentration of […]) of BGAG12,460 solution (in PBS with 1% DMSO) was injected into eyes that treated with AAV>6 wks earlier). For in vivo concentration dependence experiments, the mouse eye was assumed to contain a volume of 5.3 μL and a 2-μL volume of 3.5 μM, 1.825 μM and 0.1825 μM BGAG12,460 solution (in PBS with 1% DMSO) was injected into eyes to obtain a final concentration of 1 μM, 500 nM and 50 nM^62. For hydrated slow release 5% pharmaceutical grade beta cyclodextrin (cyclodex) in PBS was mixed with BGAG12,460 for a final concentration of 3 μM and 2 μL were injected bilaterally into the mouse eye. MAG0460 was synthesized and administered in 2 μL at a concentration of 100 μM.
(§2) The 2-chamber light-dark passive avoidance test was performed. White light (wavelength range) at ˜100 μW cm^2 or either blue light (460/45 nm) or green light (535/50 nm) at 0.5-25 μW cm^2 was mounted above the chamber with homogeneously distributed light.
(§3) Animal movements were tracked using IR sensors on the shuttle box. Time spent in the light and dark chambers was measured and analyzed using Graphic State and Graphic State RT (Coulbourn Instruments).
Natural light aversion behavior was tested. […]

[2] = system: rd1 mice expressing SNAP-mGluR2 in ON-BCs; assay: 2-chamber light/dark light aversion test, SNAP-mGluR2 in ON-BCs; assay type: in vivo, mouse; conditions: in PBS intravitreal
Experimental: as §1, §2, §3
Whether ^4×BGAG12,460:SNAP-mGluR2 would also restore light perception in ON-BCs was tested. […]

Nc1nc(OCc2ccc(CNC(=O)CCCC(=O)N[C@H](CCC(=O)N[C@H](CCC(=O)NCCOCCOCCOCCOCCOCCOCCOCCOCCOCCOCCOCCOCCC(=O)NCCNc3ccc(/N=N/c4ccc(NC(=O)CCC[C@@H](C[C@H](N)C(=O)O)C(=O)O)cc4)cc3)C(=O)NCCOCCOCCOCCOCCOCCOCCOCCOCCOCCOCCOCCOCCC(=O)NCCNc3ccc(/N=N/c4ccc(NC(=O)CCC[C@@H](C[C@H](N)C(=O)O)C(=O)O)cc4)cc3)C(=O)N[C@H](CCC(=O)NCCOCCOCCOCCOCCOCCOCCOCCOCCOCCOCCOCCOCCC(=O)NCCNc3ccc(/N=N/c4ccc(NC(=O)CCC[C@@H](C[C@H](N)C(=O)O)C(=O)O)cc4)cc3)C(=O)NCCOCCOCCOCCOCCOCCOCCOCCOCCOCCOCCOCCOCCC(=O)NCCNc3ccc(/N=N/c4ccc(NC(=O)CCC[C@@H](C[C@H](N)C(=O)O)C(=O)O)cc4)cc3)cc2)c2nc[nH]c2n1 [^4×BGAG12,460]
dark preference three weeks after injection ([1]; in PBS intravitreal): disappeared | light aversion (time in dark versus illuminated chamber) ([1]; in PBS intravitreal, first week after injection, white screen 88 uW/cm^2): spent more time in the dark chamber than in the illuminated chamber | light aversion at 0.2 μW/cm^2 ([1]; intensity-response relation): operating at chance | light intensity giving maximal light-aversion behavior ([1]; intensity-response relation): 25 μW/cm^2 | week post-injection by which dark preference disappeared [2]: ≤ 3 week | light aversion (time in dark chamber) ([2]; first week after injection): spent more time in the dark chamber
